Laboratory results as given in US5606061A, “Thioformamide derivatives” (Eisai Co., Ltd., priority 1991, dated 1997).
Read-outs that look alike come from different tables or passages of the source.

Legend:
rat aorta = assay: Vasohypotonic activity on rat aorta specimen (inhibition of KCl-induced tension); format: cell-based, rat (SD); details: rat aorta spiral specimen, 20 mM KCl, 30° C., KCl tension = 100%
Description: (1) Vasohypotonic activity on rat aorta specimen
The compounds of the present invention were examined for vasohypotonic activity by the use of the aorta extirpated from a rat.
A pectoral aorta was speedily extirpated from an SD male rat having a weight of 250 to 400 g and a spiral specimen was prepared from the aorta. This specimen was vertically suspended in the Organbath which was filled with the Krebs-Henseleit solution at 30° C. and through which a gas mixture comprising 95% of oxygen and 5% of carbon dioxide was passed. The change in the tension of the specimen was isotonically determined under a load of 1 g.
After the tension of the specimen has been stabilized, 20 mM of KCl was added to the bath. After the generated tension had been stabilized, a test compound was cumulatively added to the Organbath to determine the relaxation.
The extent of the relaxation, i.e., the inhibitory activity against the generation of tension was determined by taking the tension generated by the addition of KCl as 100% to calculate the IC50 value.

[1] = test system: right ventricular papillary muscle of guinea pig; assay: Activity on the action potential duration of the right ventricular papillary muscle of guinea pig (potassium channel activating effect); format: cell-based, guinea pig (Hartley); details: Cavia porcellus, 0.5 h, 1 Hz, 36 ±0.5° C., 30 minutes each concentration, read-out: Concn. at which APD90 is shortened to 50% of the initial one IC50 (converted)
Description: (2) Activity on the action potential duration of the right ventricular papillary muscle of guinea pig
The compounds of the present invention were examined for the potassium channel activating effect by the use of the right ventricular papillary muscle of a guinea pig.
An action potential duration at 90% repolarization (hereinafter abbreviated to "APD90 ") reflects an outward potassium current. A compound having the potassium channel activating effect can activate the outward potassium channel to shorten the APD90 (see Proc. Natl. Acad. Sci., USA, 85, 8860 to 8864 (1988)).
A Hartley male guinea pig having a weight of 300 to 500 g was used. This guinea pig was killed by bleeding and the papillary muscle was extirpated from the right ventricle of the guinea pig and fixed in the Organbath. The surface of the papillary muscle was washed with Tyrode's solution at 36 ±0.5° C. through which an oxygen/carbon dioxide mixture was passed. The resulting specimen was stimulated by applying a rectangular wave pulse of 1 Hz to record the action potential by the glass microelectrode method.
After the action potential had been stabilized, the specimen was washed with Tyrode's solutions containing a test compound each for 30 minutes to determine the dose-response curve.

[2] = test system: anesthetized thoracotomized dog; assay: Hypotensive activity and coronary bloodflow increasing activity on anesthetized thoracotomized dog; format: in vivo, dog (crossbred); details: Canis lupus familiaris, intravenous, 3 μg/kg
Description: (3) Hypotensive activity and coronary bloodflow increasing activity on anesthetized thoracotomized dog
The compounds of the present invention were examined for hypotensive activity and coronary bloodflow increasing activity by the use of an anesthetized thoracotomized dog.
A crossbred adult dog was used. This dog was thoracotomized under inhalation anesthesia with an enflurane/laughing gas. The probe of an electromagnetic flowmeter was set on the ramus circumflexes of the left coronary artery to determine the coronary bloodflow. The arterial pressure was determined by making the tip of a catheter-tipped pressure transducer indwell in the arcus aortae.
Each test compound was intravenously administered in a dose of 3 μg/kg through a catheter inserted into the femoral vein.
The hypotensive activity and coronary bloodflow increasing activity of each test compound are given in Table 1 as the changes of the blood pressure and coronary bloodflow based on those before the administration of the compound.

[3] = test system: spontaneously hypertensive rats (SHR); assay: Hypotensive activity on spontaneously hypertensive rat in waking state; format: in vivo; details: oral, 2 hours after administration, before administration = 100, control 93.3 ± 4.0, read-out: Blood pressure
Description: (4) Hypotensive activity on spontaneously hypertensive rat in waking state
The compounds of the present invention were examined for hypotensive activity by orally administrating them to spontaneously hypertensive rats (SHR).
The systolic pressure of a spontaneously hypertensive male rat (weight: 260 to 360 g) which had been fasted for 12 hours was bloodlessly determined by the tail cuff method. Each drug was suspended in a 0.5% aqueous solution of methylcellulose and orally administered in a dose of 1 mg/kg. only the solvent was administered to control rats.
The blood pressures of the rats after 2 hours from the administration are given in the Table 1 with the blood pressures before the administration being taking as 100.

[4] = change of blood pressure vs before administration, read-out: Change (%) hypotensive activity
[5] = change of coronary bloodflow vs before administration, read-out: Change (%) coronary blood-flow increasing activity

Structure (SMILES)	IC50 (rat aorta)	IC50 [1]	change in vivo at 0.003 mg/kg [2, 4]	change in vivo at 0.003 mg/kg [2, 5]	response vs control in vivo at 1 mg/kg [3]
CNC(=S)C1(c2ccc3nccn3c2)CCCCC1=O (single isomer, unassigned; (-)) [Compound 1, (-)-1-(imidazo[1,2-a]pyridin-6-yl)-N-methyl-2-oxocyclohexanecarbothioamide]	18.6 nM	2630 nM	-22.1%	78.6%	51.6 ± 5.1%
CNC(=S)C1(c2ccc3nccn3c2)CCCCC1NCc1ccccc1 (stereo not drawn) [Compound 7]	1.78 nM	–	-7.3%	22.8%	87.9 ± 0.1%
CNC(=S)C1(c2ccc3nccn3c2)CCCCC1OC(=O)c1ccccc1 (single isomer, unassigned; (-)) [Compound 4, (-)-2-benzoyloxy-1-(imidazo[1,2-a]pyridin-6-yl)-N-methylcyclohexanecarbothioamide]	0.575 nM	–	-26.6%	312%	–
CNC(=S)C1(c2ccc3nccn3c2)CCCCC1=NOCc1ccccc1 (stereo not drawn) [Compound 6, anti-2-benzyloxyimino-1-(imidazo[1,2-a]pyridin-6-yl)-N-methylcyclohexanecarbothioamide]	1.91 nM	204 nM	-25.2%	67.5%	59.3 ± 6.9%
CNC(=S)C1(c2ccc3nc(C)cn3c2)CCCCC1=O (single isomer, unassigned; (-)) [Compound 3, (-)-N-methyl-1-(2-methylimidazo-[1,2-a]pyridin-6-yl)-2-oxocyclohexanecarbothioamide]	6.17 nM	759 nM	-27%	198%	45.9 ± 3.9%
CNC(=S)C1(c2ccc3nccn3c2)CCCCC1OCc1ccccc1 (stereo not drawn) [Compound 5, 2-benzyloxy-1-(imidazo[1,2-a]pyridin-6-yl)-N-methylcyclohexanecarbothioamide]	0.355 nM	8.91 nM	-8.1%	196%	–

Now from value to compound, other results behind:

IC50 (rat aorta)	IC50 [1]	Structure (SMILES)	change in vivo at 0.003 mg/kg [2, 4]	change in vivo at 0.003 mg/kg [2, 5]	response vs control in vivo at 1 mg/kg [3]
0.49 nM	51.3 nM	CNC(=S)C1(n2cnc([N+](=O)[O-])c2)CCCCC1OCc1ccccc1 (stereo not drawn) [Compound 10, 2-benzyloxy-N-methyl-1-(4-nitroimidazol-1yl)cyclohexanecarbothioamide]	-16.3%	169%	58.8 ± 5.7%
11 nM	479 nM	CNC(=S)C1(n2cnc([N+](=O)[O-])c2)CCCCC1OC(=O)c1ccccc1 (stereo not drawn) [Compound 9, 2-benzoyloxy-N-methyl-1-(4-nitroimidazol-1yl)cyclohexanecarbothioamide]	-14.9%	131%	62.4 ± 3.7%
20 nM	–	CNC(=S)C1(c2ccc3nc(C(F)(F)F)cn3c2)CCCCC1=O (single isomer, unassigned; (-)) [Compound 12, (-)-1-(2-trifluoromethylimidazo-[1,2-a]pyridin-6-yl)-N-methyl-2-oxocyclohexanecarbothioamide]	-16.5%	86.5%	–
20 nM	–	CNC(=S)C1(c2ccc3nc(C)cn3c2)CCCC[S+]1[O-] (single isomer, unassigned; (-)) [Compound 13, (-)-2-(2-methylimidazo-[1,2-a]pyridin-6-yl)-N-methyltetrahydrothiopyran-2-carbonthioamide 1-oxide]	-30%	228%	–
55 nM	–	CNC(=S)C1(c2ccc3nccn3c2)CCCC[S+]1[O-] (stereo not drawn) [Compound 8, 2-(imidazo[1,2-a]pyridin-6-yl)-N-methyltetrahydrothiopyran-2-carbothioamide1-oxide]	-10.5%	70.7%	62 ± 6.5%
0.55 nM	148 nM	CNC(=S)C1(n2cnc([N+](=O)[O-])c2)CCCCC1=NOCc1ccccc1 (stereo not drawn) [Compound 11, anti-2-benzyloxyimino-N-methyl-1-(4-nitroimidazol-1-yl)cyclohexanecarbothioamide]	-28.5%	152%	72.1 ± 4.5%
